Data as given in publication PMC9866218, “Characterization and Chemical Synthesis of Cm39 (α-KTx 4.8): A Scorpion Toxin That Inhibits Voltage-Gated K^+ Channel KV1.2 and Small- and Intermediate-Conductance Ca^2+-Activated K^+ Channels KCa2.2 and KCa3.1” (Toxins, 2023).

Target: T1, hKCa2.2 (Homo sapiens, UniProt Q9H2S1)
T1 construct: expressed in transfected cells; host or cells: CHO cells, transient transfection, co-transfected with a GFP plasmid
Test: Whole-cell patch-clamp, block of KCa2.2 current
Type: cell-based
Source text: We, therefore, aimed at testing the pharmacological activity of sCm39 on a battery of various potassium and sodium ion channels. Among the tested channels were six members of human voltage-gated K^+ (hKV) channels from Shaker family, hKV1.1-hKV1.6 (Figure 3A–F) and three members of Ca^2+-activated potassium channel; hKCa2.2 (SK2, Figure 3I), the small-conductance Ca^2+-activated channel; hKCa3.1 (IKCa1, SK4. Figure 3J), the intermediate-conductance Ca^2+-activated channel expressed in T lymphocytes; and mKCa1.1 (BK, Slo1, MaxiK, Figure 3H), the large-conductance voltage- and Ca^2+-activated channel of mice. In addition, we also screened the effect of Cm39 on hKV11.1 (hERG1, Figure 3G), a voltage-gated cardiac K^+ channel, and two human voltage-gated sodium (hNaV) channels, hNaV1.4 (Figure 3K) and hNaV1.5 (Figure 3L), expressed in skeletal and cardiac muscles, respectively. These ion channels were heterologously expressed in the CHO or HEK cell lines except for KV1.3. Human peripheral T lymphocytes. They were stimulated with Phytohemagglutinin A (PHA) to increase the KV1.3 channel expression, and Ca^2+-free intracellular solution was used to avoid KCa3.1 channel activation. Appropriate depolarization protocols were used to record ionic currents in voltage-clamped cells (see Figure 3 insets and Material and Methods for details). Freshly dissolved sCm39 in extracellular solution was applied at 1 µM concentration on the cell using a custom-built micro-perfusion system at ~200 µL/min flow rate.
The whole-cell K^+ currents of CHO cells transiently expressing KCa2.2 or KCa3.1 channels were recorded sequentially by applying the 150 ms long voltage ramp to +50 mV from Vh of −120 mV every 10 s in the presence of control solution or upon perfusing the cell with different concentrations of sCm39. Normalized peak currents were calculated and plotted as function of time as shown in Figure 5A for KCa2.2 and in Figure 5C for KCa3.1 in the presence of the toxin at various concentrations and upon wash-out. […] RCF values were determined at equilibrium block in the presence of various concentrations of sCm39 and fitted with the Hill equation (see Materials and Methods for details).
Chinese hamster ovary (CHO) cells (gift from Yosef Yarden, Weizmann Institute of Science, Rehovot, Israel) were maintained by culturing in Dulbecco’s modified Eagle medium (DMEM, Gibco) supplemented with 2 mM L-glutamine, 10% FBS, 100 µg/mL streptomycin and 100 U/mL penicillin-g (Sigma-Aldrich) at a density of 0. 5−1×10^6 cells per mL in a humidified incubator at 37 °C and 5% CO2. Cells were passaged 3 times in a week following a 2–5 min incubation in 0.05% trypsin-EDTA solution at 37 °C. Cultures were used up to passage number 20. PCR-based tests were routinely used to detect mycoplasma infection, only mycoplasma-free cultures were used for experiments.
Those plasmids which lack a fluorescent tag were co-transfected with a plasmid encoding GFP. Transfections were performed at a GFP:channel DNA molar ratio of 1:10 using the Lipofectamine 2000 kit (Invitrogen) according to the manufacturer’s protocol. […] Generally, currents were recorded 24 to 48 h post transfection.
For the measurement of KV1.x, mKCa1.1 and NaV1.x currents the extracellular solution was composed of (in mM) 145 NaCl, 5 KCl, 2.5 CaCl2, 1 MgCl2, 10 HEPES and 5.5 glucose, pH 7.35.

T1 sequence (Q9H2S1 whole entry): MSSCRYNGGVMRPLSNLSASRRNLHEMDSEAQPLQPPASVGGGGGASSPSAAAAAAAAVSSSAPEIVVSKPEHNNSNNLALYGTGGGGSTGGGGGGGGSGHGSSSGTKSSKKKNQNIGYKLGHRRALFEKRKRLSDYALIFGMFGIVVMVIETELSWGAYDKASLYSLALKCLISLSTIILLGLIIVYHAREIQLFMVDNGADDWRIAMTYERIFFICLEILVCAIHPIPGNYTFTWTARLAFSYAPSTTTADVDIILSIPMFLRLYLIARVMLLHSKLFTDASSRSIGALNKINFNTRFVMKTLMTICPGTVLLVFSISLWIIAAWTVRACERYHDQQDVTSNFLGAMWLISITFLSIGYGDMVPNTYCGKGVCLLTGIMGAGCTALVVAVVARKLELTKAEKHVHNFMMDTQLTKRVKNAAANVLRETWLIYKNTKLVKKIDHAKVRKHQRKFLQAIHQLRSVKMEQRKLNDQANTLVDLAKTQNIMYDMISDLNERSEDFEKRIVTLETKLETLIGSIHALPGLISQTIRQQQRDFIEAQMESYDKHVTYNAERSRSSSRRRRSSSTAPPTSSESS

Compound: CC[C@H](C)[C@@H]1NC(=O)[C@H](C)NC(=O)[C@H](C)NC(=O)[C@H](CCCCN)NC(=O)[C@@H]2CSSC[C@@H](C(=O)N[C@@H](Cc3ccc(O)cc3)C(=O)N[C@@H](Cc3ccc(O)cc3)C(=O)O)NC(=O)[C@H](CCCCN)NC(=O)[C@@H]3CSSC[C@H](NC(=O)[C@H](CCC(=O)O)NC(=O)[C@H](CO)NC(=O)[C@H](CO)NC(=O)[C@H](CO)NC(=O)[C@H](CCCCN)NC(=O)[C@@H](NC(=O)[C@H](CCCCN)NC(=O)[C@H](Cc4c[nH]cn4)NC(=O)[C@H](CC(N)=O)NC(=O)[C@@H](NC(=O)[C@H](Cc4ccccc4)NC(=O)[C@@H](N)[C@@H](C)O)[C@@H](C)CC)CSSC[C@H](NC(=O)[C@H](CCCCN)NC(=O)CNC(=O)[C@H](CO)NC(=O)[C@H](C)NC(=O)[C@H](CCCNC(=N)N)NC(=O)CNC1=O)C(=O)N[C@@H]([C@@H](C)CC)C(=O)N[C@@H](CC(N)=O)C(=O)N[C@@H](CO)C(=O)N[C@@H]([C@@H](C)O)C(=O)N3)C(=O)N[C@@H](CC(C)C)C(=O)N1CCC[C@H]1C(=O)N[C@@H](C)C(=O)N2 [Cm39]
- reduction of current at equilibrium block (1 µM, CHO cells, current at +48 mV, n = 3−5 (Figure 3M)): 55%
- toxin association and dissociation kinetics (CHO cells): fast
- toxin association and dissociation kinetics (CHO cells, listed as sCm39): very fast
- Hill coefficient (H) (concentration-response of KCa2.2 block, CHO cells): 0.7
- development and almost full recovery from equilibrium block (pulses separated by 10 s): 1–3 depolarization pulses
- reversibility of KCa2.2 block (wash-out with toxin-free solution): fully reversible
